The target in series [1] is T1, Tau (Homo sapiens, UniProt P10636).
T1 construct: BiFC fluorescent-protein fragments (two complementary halves on two tau copies); expressed in transfected cells
Put plainly: Tau aggregation inhibition in Tau-BiFC cell model (Forskolin-induced). The format is cell-based. In short, it runs like this:
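Tau-BiFC cells were co-treated with compound (1, 3, 10 µM for screening; 0.03–30 µM for IC50) and 30 µM Forskolin for 48 h. BiFC fluorescence was normalised to the Forskolin-only window for aggregation; viability came from Hoechst-stained nuclei counts relative to Forskolin-only (100%). IC50 was derived by nonlinear regression.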

In series [2] the target is T2, TDP-43 protein (Homo sapiens, UniProt Q13148).
T2 construct: BiFC fluorescent-protein fragments (two complementary halves); expressed in transfected cells
Put plainly: TDP-43 aggregation inhibition in TDP-43-BiFC cell model (Forskolin-induced). It is filed as cell-based. The settings on record: read-out: TDP-43 protein aggregation inhibitory effect: Aggregation inhibitory effect (%) (@3 uM). In short, it runs like this: (§1)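 Forskolin (30 µM) co-treated with compound (screen 3 and 10 µM; dose-response 0.003–10 µM) for 48 h. BiFC fluorescence normalised to Forskolin-only (100% aggregation) minus untreated; viability from Hoechst-stained nuclei count vs Forskolin-only. IC50 by nonlinear regression.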

Series [3] concerns TDP-43 BiFC cells. The experiment in a line: Cell viability (stained nuclei count) in TDP-43-BiFC cells. It is filed as cell-based. Conditions: Forskolin-only group = 100%. The essentials:
as §1

The target of series [4] is T3, CYP3A4 (Homo sapiens, UniProt P08684).
T3 construct: human liver microsomes (0.25 mg/mL); from tissue; host or cells: human liver microsomes
The experiment in a line: CYP isoenzyme activity inhibition in human liver microsomes, CYP3A4. Conditions: 10 µM compound; human liver microsomes 0.25 mg/mL; relative to control without compound. The format is in vitro ADME. In short, it runs like this:
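Human liver microsomes 0.25 mg/mL, pH 7.4 phosphate, with cocktail substrates phenacetin 50 µM (1A2), diclofenac 10 µM (2C9), S-mephenytoin 100 µM (2C19), midazolam 2.5 µM (3A4); compound at 10 µM. 5 min pre-incubation, then NADPH for 15 min at 37 °C; metabolites by LC-MS/MS MRM, reported as % activity of no-compound control.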
Background: Liver microsomes are a subcellular fraction often used to study metabolism.

Setting [5] is: read-out: Tau aggregation inhibitory effect IC50, Tau-BiFC cell line, Forskolin 30 µM, 48 hours, 0.03-30 µM.

pIC50: −log10 of the molar value. Where two headings read alike, the source gives them in different places.

T3 sequence (P08684 whole entry): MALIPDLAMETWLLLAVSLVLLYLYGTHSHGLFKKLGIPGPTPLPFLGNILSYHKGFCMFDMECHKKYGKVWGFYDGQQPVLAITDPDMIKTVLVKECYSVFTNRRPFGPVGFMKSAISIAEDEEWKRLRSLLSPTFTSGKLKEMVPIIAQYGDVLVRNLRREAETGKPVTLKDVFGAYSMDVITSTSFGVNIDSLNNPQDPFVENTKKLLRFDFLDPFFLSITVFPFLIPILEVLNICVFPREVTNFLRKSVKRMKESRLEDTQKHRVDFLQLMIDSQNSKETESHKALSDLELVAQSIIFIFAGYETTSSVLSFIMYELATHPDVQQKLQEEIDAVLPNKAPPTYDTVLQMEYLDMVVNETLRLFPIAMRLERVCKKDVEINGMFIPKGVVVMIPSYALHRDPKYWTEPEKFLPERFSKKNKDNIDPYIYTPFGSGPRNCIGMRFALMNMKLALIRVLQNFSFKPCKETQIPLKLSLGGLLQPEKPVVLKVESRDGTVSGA
T1 sequence (P10636 1-441 isoform P10636-8): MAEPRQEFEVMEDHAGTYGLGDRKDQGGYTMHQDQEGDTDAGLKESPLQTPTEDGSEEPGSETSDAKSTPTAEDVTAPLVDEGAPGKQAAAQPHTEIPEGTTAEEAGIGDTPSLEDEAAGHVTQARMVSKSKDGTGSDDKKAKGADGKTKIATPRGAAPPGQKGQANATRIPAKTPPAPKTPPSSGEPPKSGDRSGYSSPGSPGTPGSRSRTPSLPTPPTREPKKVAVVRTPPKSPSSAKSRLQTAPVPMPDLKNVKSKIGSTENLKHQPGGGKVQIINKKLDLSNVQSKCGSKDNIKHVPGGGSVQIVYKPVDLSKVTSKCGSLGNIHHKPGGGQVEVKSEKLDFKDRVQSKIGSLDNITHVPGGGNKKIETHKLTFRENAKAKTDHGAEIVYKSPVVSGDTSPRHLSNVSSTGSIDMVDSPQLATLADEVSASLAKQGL
T2 sequence (Q13148 whole entry, the tested form may be a part): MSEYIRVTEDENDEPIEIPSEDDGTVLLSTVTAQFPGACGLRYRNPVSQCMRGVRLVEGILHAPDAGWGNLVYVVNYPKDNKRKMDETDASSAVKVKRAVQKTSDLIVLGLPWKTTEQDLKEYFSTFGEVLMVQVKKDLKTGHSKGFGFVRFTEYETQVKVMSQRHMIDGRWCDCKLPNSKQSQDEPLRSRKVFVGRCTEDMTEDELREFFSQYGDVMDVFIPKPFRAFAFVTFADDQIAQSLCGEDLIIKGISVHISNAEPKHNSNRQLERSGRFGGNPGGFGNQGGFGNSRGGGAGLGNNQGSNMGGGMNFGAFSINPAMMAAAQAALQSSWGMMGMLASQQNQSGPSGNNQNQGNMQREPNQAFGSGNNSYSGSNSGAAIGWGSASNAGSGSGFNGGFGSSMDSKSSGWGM

One may read the pIC50 as the IC50 on a negative log10 scale, so that one unit is a factor of ten. The compound `CC1CN(C(=O)Nc2nc3ccc(NN=C(C#N)C#N)cc3s2)CC(C)O1` (stereo not drawn) [Compound 39, (2-(2,6-dimethylmorpholine-4-carboxamido)benzo[d]thiazol-6-yl)carbonohydrazonoyl dicyanide] had a negative-log IC50 (pIC50) in series [1] of 7.36. Also, the inhibition at 3 µM in series [2] amounted to 58.7%. Also, the “Cell viability (%) (@ 3 uM)” value in series [3] is 117.7%. For the same compound, the “CYP3A4 (% activity)” value in series [4] is on record as 56.5 % activity.

For `N#CC(C#N)=NNc1ccc2nc(NC(=O)N3CC4CCC(C3)O4)sc2c1` [Compound 40, (2-(8-oxa-3-azabicyclo[3.2.1]octane-3-carboxamido)benzo[d]thiazol-6-yl)carbonohydrazonoyl dicyanide], the pIC50 in series [1] (setting [5]) is 6.50. Besides, the inhibition at 3 µM in series [2] worked out at 67.7%. In addition, in series [3], the “Cell viability (%) (@ 3 uM)” value is 95.6%. In series [4], the “CYP3A4 (% activity)” value is 75.5 % activity.

Consider `N#CC(C#N)=NNc1ccc2nc(N3CC[C@@H](F)C3)oc2c1` [Compound 41, (R)-(2-(3-fluoropyrrolidin-1-yl)benzo[d]oxazol-6-yl)carbonohydrazonoyl dicyanide], for which the pIC50 in series [1] (setting [5]) is 6.59. In addition, the inhibition at 3 µM in series [2] is 87.8%. For the same compound, the “Cell viability (%) (@ 3 uM)” value in series [3] is 71.5%. Further, in series [4], the “CYP3A4 (% activity)” value came to 86.5 % activity.

(Values after EP4737445A1, “NOVEL SATURATED HETEROCYCLE-SUBSTITUTED HETEROARYL-CARBONOHYDRAZONOYL DICYANIDE COMPOUND AND USE THEREOF” (Korea Institute of Science and Technology, priority 2023, dated 2025).)
